Values quoted from earlier work in patent US20030175349A1, “Pharmaceutical compostion for extended/sustained release of a therapeutically active ingredient” (COUNCIL OF SCIENTIFIC AND INDUSTRIAL RESEARCH, priority 2002, published 2003).

| parts of water in which 1 part is soluble (at 20° C.) | solubility in water (in words) | Structure (SMILES) |
| --- | --- | --- |
| 14 parts of water |  | CC(=O)OCC(COC(C)=O)OC(C)=O [triacetin] |
|  | practically insoluble in water | Cc1ccc(S(=O)(=O)NC(=O)NN2CC3CCCC3C2)cc1 (stereo not drawn) [Gliclazide, gliclazide] |
|  | slightly soluble in water | CC(=O)Oc1ccccc1C(=O)O [Aspirin, aspirin] |
